Test systems include NCI-H23; HOP-62; CCRF-CEM; HT-29; BT-549; NCI-H226; DU-145; MDA-MB-231; SF-268; KM12; HCC 2998; 786-0; SK-OV-3; CAKI-1; NCI/ADR-RES; T47D; OVCAR-3; RXF 393; SR.
Holding throughout (assay): NCI tumour cell line growth inhibition, 48 h

Molecules are shown by their SMILES.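 Five concentrations, 48 hours, 96-well plates. GI50 marks 50% less growth.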 Active and inactive are the calls of the source. Cut-off read from the data, not from the text of the source: active = GI50 up to about 1.1 µM and inactive = higher. Where only a bound is given, the exact number is not on record here.

Take `O=C1C(Cl)=C(NCCN2CCOCC2)C(=O)c2c(O)ccc(O)c21`: the GI50 was 1 µM (active) with NCI-H23; 1.92 µM (inactive) in the assay on HOP-62; 1.56 µM (inactive) in the assay with CCRF-CEM; 2.03 µM (inactive) with HT-29; 2.24 µM (inactive) in the assay with BT-549; 9.95 µM (inactive) in the assay on NCI-H226. Moreover, the GI50 in the assay on DU-145 is 1.71 µM (inactive); in the assay with MDA-MB-231, 2.39 µM (inactive); in the assay with SF-268 it was 2.28 µM (inactive); with KM12, 3.23 µM (inactive); in the assay with HCC 2998, 1.89 µM (inactive); in the assay on 786-0 it was 2.01 µM (inactive). Further, the GI50 in the assay on SK-OV-3 was 10 µM (inactive); in the assay on CAKI-1, 1.74 µM (inactive); with NCI/ADR-RES, 2.09 µM (inactive); in the assay on T47D, 1.99 µM (inactive); with OVCAR-3, 2.49 µM (inactive).
In the case of `C[N+]1(CCCl)CC[N+](C)(CCCl)CC1` (centres undefined), the GI50 with NCI-H23, in the assay on HOP-62, with CCRF-CEM, with HT-29, in the assay with BT-549 and in the assay with NCI-H226 was > 100 µM (inactive) throughout. Moreover, the GI50 with DU-145, in the assay on MDA-MB-231, in the assay with SF-268, in the assay with KM12, in the assay with RXF 393 and in the assay with 786-0 was > 100 µM (inactive) throughout. Also, the GI50 in the assay with SK-OV-3, in the assay with CAKI-1, with NCI/ADR-RES, in the assay on T47D and with OVCAR-3 was > 100 µM (inactive) in each case.
As for `CC(=O)OC1CC(O)CC2=CCC3C4CCC(C(C)(O)C(O)CC5COC(=O)C5C)C4(C)CCC3C21C` (centres undefined), the GI50 in the assay on NCI-H23 is > 25 µM (inactive); with HOP-62, > 25 µM (inactive); in the assay with CCRF-CEM, 16.5 µM (inactive); in the assay with HT-29 it was > 25 µM (inactive); in the assay with BT-549, > 25 µM (inactive); with NCI-H226, 12.1 µM (inactive). Also, the GI50 in the assay on SR was 13.6 µM (inactive); with DU-145, > 25 µM (inactive); with MDA-MB-231 it was 13 µM (inactive); with SF-268, > 25 µM (inactive); in the assay with KM12, > 25 µM (inactive); in the assay with HCC 2998 it was > 25 µM (inactive). Moreover, the GI50 with RXF 393 is > 25 µM (inactive); in the assay with 786-0, > 25 µM (inactive); in the assay with SK-OV-3, > 25 µM (inactive); in the assay with CAKI-1, 8.43 µM (inactive); with T47D it was > 25 µM (inactive); in the assay on OVCAR-3, > 25 µM (inactive).
In the case of `CN(C)CCNC1=C(Cl)C(=O)c2c(O)ccc(O)c2C1=O`, the GI50 in the assay on NCI-H23 is 2.18 µM (inactive); in the assay on HOP-62, 1.95 µM (inactive); in the assay with CCRF-CEM it was 2.01 µM (inactive); in the assay with HT-29, 1.85 µM (inactive); in the assay with BT-549 it was 1.72 µM (inactive); in the assay with NCI-H226, 23.6 µM (inactive). The GI50 in the assay on DU-145 was 1.94 µM (inactive); in the assay on MDA-MB-231, 1.38 µM (inactive); in the assay with SF-268, 17.1 µM (inactive); in the assay on KM12, 1.82 µM (inactive); with HCC 2998 it was 1.79 µM (inactive); in the assay on RXF 393, 4.34 µM (inactive). Besides, the GI50 is 2.08 µM (inactive) in the assay with 786-0; 18.2 µM (inactive) in the assay on SK-OV-3; 3.12 µM (inactive) with NCI/ADR-RES; 2.08 µM (inactive) in the assay with T47D; 1.98 µM (inactive) with OVCAR-3.

For the origin of these results see ChEMBL document CHEMBL1201862, “PubChem BioAssay data set” (2004).
